Test results as given in patent US20190307776A1, “AZA-S[…] HUMAN IMMUNODEFICIENCY VIRUS REPLICATION” (priority 2016, published 2019).
pEC50: −log10 of the molar value.

Tested on: recombinant NL4-3 virus
Experiment: HIV cell culture assay
Assay type: cell-based
Details: Human immunodeficiency virus 1, NL43, MT2
Procedure, shortened: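 Antiviral activity measured in MT-2 cells infected 4–5 days with NL4-3 carrying Renilla luciferase in place of part of nef plus Gag P373S, in the presence of serial inhibitor dilutions. Read-out was luciferase activity by Dual Luciferase lysis/substrate mix.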

**Q.** `C=C(C)[C@@H]1CC[C@]2(CNCCCN3CCS(=O)(=O)CC3)CC[C@]3(C)[C@H](CC[C@@H]4[C@@]5(C)CCN(C(=O)c6ccc(C(=O)O)cc6)C(C)(C)[C@@H]5CC[C@]43C)[C@@H]12` [Example 30, 4-((4aR,6aR,6bR,8aS,11R,11aR,11bR,13aR,13bR)-8a-(((3-(1,1-dioxidothiomorpholino)propyl)amino)methyl)-4,4,6a,6b,13b-pentamethyl-11-(prop-1-en-2-yl)icosahydro-1H-cyclopenta[5,6]naphtho[2,1-f]isoquinoline-3-carbonyl)benzoic acid] was tested. Which pEC50 did it give?
**A.** 6.96

**Q.** `C=C(C)[C@@H]1CC[C@]2(CNCCCN3CCS(=O)(=O)CC3)CC[C@]3(C)[C@H](CC[C@@H]4[C@@]5(C)CCN(c6ccc(C(=O)O)cc6)C(C)(C)[C@@H]5CC[C@]43C)[C@@H]12` [Example 48, 4-((4aR,6aR,6bR,8aS,11R,11aR,11bR,13aR,13bR)-8a-(((3-(1,1-dioxidothiomorpholino)propyl)amino)methyl)-4,4,6a,6b,13b-pentamethyl-11-(prop-1-en-2-yl)hexadecahydro-1H-cyclopenta[5,6]naphtho[2,1-f]isoquinolin-3(2H,4H,13bH)-yl)benzoic acid] was tested. Which pEC50 did it give?
**A.** 8.30

**Q.** How did the pEC50 turn out when `C=C(C)[C@@H]1CC[C@]2(CNCCCN3CCS(=O)(=O)CC3)CC[C@]3(C)[C@H](CC[C@@H]4[C@@]5(C)CCN(C(=O)/C=C/c6ccc(C(=O)O)cc6)C(C)(C)[C@@H]5CC[C@]43C)[C@@H]12` [Example 29, 4-((E)-3-((4aR,6aR,6bR,8aS,11R,11aR,11bR,13aR,13bR)-8a-(((3-(1,1-dioxidothiomorpholino)propyl)amino)methyl)-4,4,6a,6b,13b-pentamethyl-11-(prop-1-en-2-yl)hexadecahydro-1H-cyclopenta[5,6]naphtho[2,1-f]isoquinolin-3(2H,4H,13bH)-yl)-3-oxoprop-1-en-1-yl)benzoic acid] was run?
**A.** 5.80

**Q.** How did the pEC50 turn out when `C=C(C)[C@@H]1CC[C@]2(CO)CC[C@]3(C)[C@H](CC[C@@H]4[C@@]5(C)CCCN(S(=O)(=O)c6ccc(CC(=O)O)cc6)C(C)(C)C5CC[C@]43C)[C@@H]12` (stereo partly drawn) [Example 15, 2-(4-(((7aR,7bR,9aS,12R,12aR,12bR,14aR,14bR)-9a-(hydroxymethyl)-5,5,7a,7b,14b-pentamethyl-12-(prop-1-en-2-yl)icosahydrocyclopenta[7,8]phenanthro[2,1-c]azepin-4(1H)-yl)sulfonyl)phenyl)acetic acid] was run?
**A.** < 5.10

**Q.** How did the pEC50 turn out when `C=C(C)[C@@H]1CC[C@]2(CO)CC[C@]3(C)[C@H](CC[C@@H]4[C@@]5(C)CCN(S(=O)(=O)c6ccc(CC(=O)O)cc6)C(C)(C)C5CC[C@]43C)[C@@H]12` (stereo partly drawn) [Example 19, 2-(4-(((6aR,6bR,8aS,11R,11aR,11bR,13aR,13bR)-8a-(hydroxymethyl)-4,4,6a,6b,13b-pentamethyl-11-(prop-1-en-2-yl)icosahydro-3H-cyclopenta[5,6]naphtho[2,1-f]isoquinolin-3-yl)sulfonyl)phenyl)acetic acid] was run?
**A.** < 5.10

**Q.** With `C=C(C)[C@@H]1CC[C@]2(CNCCCN3CCS(=O)(=O)CC3)CC[C@]3(C)[C@H](CC[C@@H]4[C@@]5(C)CCN(c6c(O)c(=O)c6=O)C(C)(C)[C@@H]5CC[C@]43C)[C@@H]12` [Example 55, 3-((4aR,6aR,6bR,8aS,11R,11aR,11bR,13aR,13bR)-8a-(((3-(1,1-dioxidothiomorpholino)propyl)amino)methyl)-4,4,6a,6b,13b-pentamethyl-11-(prop-1-en-2-yl)hexadecahydro-1H-cyclopenta[5,6]naphtho[2,1-f]isoquinolin-3(2H,4H,13bH)-yl)-4-hydroxycyclobut-3-ene-1,2-dione] as the molecule, how does the pEC50 read?
**A.** 6.60

**Q.** How did the pEC50 turn out when `C=C(C)[C@@H]1CC[C@]2(CNCCCN3CCS(=O)(=O)CC3)CC[C@]3(C)[C@H](CC[C@@H]4[C@@]5(C)CCN(C(=O)C(=O)O)C(C)(C)[C@@H]5CC[C@]43C)[C@@H]12` [Example 37, 2-((4aR,6aR,6bR,8aS,11R,11aR,11bR,13aR,13bR)-8a-(((3-(1,1-dioxidothiomorpholino)propyl)amino)methyl)-4,4,6a,6b,13b-pentamethyl-11-(prop-1-en-2-yl)hexadecahydro-1H-cyclopenta[5,6]naphtho[2,1-f]isoquinolin-3(2H,4H,13bH)-yl)-2-oxoacetic acid] was run?
**A.** < 5.52

**Q.** `C=C(C)[C@@H]1CC[C@]2(CO)CC[C@]3(C)[C@H](CC[C@@H]4[C@@]5(C)CCN(C(=O)CC(=O)O)C(C)(C)C5CC[C@]43C)[C@@H]12` (stereo partly drawn) [Example 7, 3-((6aR,6bR,8aS,11R,11aR,11bR,13aR,13bR)-8a-(hydroxymethyl)-4,4,6a,6b,13b-pentamethyl-11-(prop-1-en-2-yl)icosahydro-3H-cyclopenta[5,6]naphtho[2,1-f]isoquinolin-3-yl)-3-oxopropanoic acid] was tested. Which pEC50 did it give?
**A.** 6.32

**Q.** `C=C(C)[C@@H]1CC[C@]2(C(=O)O)CC[C@]3(C)[C@H](CC[C@@H]4[C@@]5(C)CC(=O)N(c6ccc(C(=O)O)cc6)C(C)(C)[C@@H]5CC[C@]43C)[C@@H]12` [Example 22, (4aR,6aR,6bR,8aS,11R,11aR,11bR,13aR,13bR)-3-(4-carboxyphenyl)-4,4,6a,6b,13b-pentamethyl-2-oxo-11-(prop-1-en-2-yl)icosahydro-8aH-cyclopenta[5,6]naphtho[2,1-f]isoquinoline-8a-carboxylic acid] was tested. Which pEC50 did it give?
**A.** < 5.52

**Q.** `C=C(C)[C@@H]1CC[C@]2(CNCCCN3CCS(=O)(=O)CC3)CC[C@]3(C)[C@H](CC[C@@H]4[C@@]5(C)CCN(c6ccc(C#N)nc6)C(C)(C)[C@@H]5CC[C@]43C)[C@@H]12` [Example 43, 5-((4aR,6aR,6bR,8aS,11R,11aR,11bR,13aR,13bR)-8a-(((3-(1,1-dioxidothiomorpholino)propyl)amino)methyl)-4,4,6a,6b,13b-pentamethyl-11-(prop-1-en-2-yl)hexadecahydro-1H-cyclopenta[5,6]naphtho[2,1-f]isoquinolin-3(2H,4H,13bH)-yl)picolinonitrile] was tested. Which pEC50 did it give?
**A.** 6.55

**Q.** How did the pEC50 turn out when `C=C(C)[C@@H]1CC[C@]2(CO)CC[C@]3(C)[C@H](CC[C@@H]4[C@@]5(C)CCCN(S(=O)(=O)c6ccc(/C=C/C(=O)O)cc6)C(C)(C)C5CC[C@]43C)[C@@H]12` (stereo partly drawn) [Example 12, (E)-3-(4-(((7aR,7bR,9aS,12R,12aR,12bR,14aR,14bR)-9a-(hydroxymethyl)-5,5,7a,7b,14b-pentamethyl-12-(prop-1-en-2-yl)icosahydrocyclopenta[7,8]phenanthro[2,1-c]azepin-4(1H)-yl)sulfonyl)phenyl)acrylic acid] was run?
**A.** < 5.10

**Q.** With `C=C(C)[C@@H]1CC[C@]2(CO)CC[C@]3(C)[C@H](CC[C@@H]4[C@@]5(C)CCCN(S(=O)(=O)c6cccc(C(=O)O)c6)C(C)(C)C5CC[C@]43C)[C@@H]12` (stereo partly drawn) [Example 13, 3-(((7aR,7bR,9aS,12R,12aR,12bR,14aR,14bR)-9a-(hydroxymethyl)-5,5,7a,7b,14b-pentamethyl-12-(prop-1-en-2-yl)icosahydrocyclopenta[7,8]phenanthro[2,1-c]azepin-4(1H)-yl)sulfonyl)benzoic acid] as the molecule, how does the pEC50 read?
**A.** < 5.10

**Q.** `C=C(C)[C@@H]1CC[C@]2(CNCCCN3CCS(=O)(=O)CC3)CC[C@]3(C)[C@H](CC[C@@H]4[C@@]5(C)CCN(C(=O)CC(C)(C)C(=O)O)C(C)(C)[C@@H]5CC[C@]43C)[C@@H]12` [Example 23, 4-((4aR,6aR,6bR,8aS,11R,11aR,11bR,13aR,13bR)-8a-(((3-(1,1-dioxidothiomorpholino)propyl)amino)methyl)-4,4,6a,6b,13b-pentamethyl-11-(prop-1-en-2-yl)icosahydro-3H-cyclopenta[5,6]naphtho[2,1-f]isoquinolin-3-yl)-2,2-dimethyl-4-oxobutanoic acid] was tested. Which pEC50 did it give?
**A.** 6.41
